Target: NfnB (PpNfnB) (Pseudomonas putida, UniProt Q88K59)
Experiment: nitroreduction, HPLC-ICP-MS
Format: biochemical
Details: 4 uM substrate, 1 uM enzyme, 0.2 mM NADPH, 25 uM FMN, pH 7.0, 37 °C

Question: With `O=[N+]([O-])c1ccc([As](=O)(O)O)cc1` [Nit(V), 4-nitrophenylarsonic acid] as the compound, how does the “nitroreduction, HPLC-ICP-MS” value read?
Answer: NfnB also reduces Nit(V) to p-ASA(V)

From paper PMC7606800 (The Science of the total environment, 2020)
